# Results from patent publication US20250114387A1, “PHARMACEUTICAL COMPOSITION COMPRISING ENAVOGLIFLOZIN FOR PREVENTING OR TREATING OBESITY IN CANINE ANIMALS” (DAEWOONG PHARMACEUTICAL CO., LTD., priority 2022, published 2025).
# Assays:
# obese dogs = assay: Clinical trial in obese dogs: BCS, body weight, chest and waist circumference, resting energy requirement, fat thickness, body fat; format: in vivo
# Source text: Adult dogs which were naturally obese but otherwise healthy were selected regardless of breed, sex, and altered status, and informed consent was obtained from the dog owners for participation in the clinical trial.
# As a result of physical examination of all dogs (including body weight and BCS (a total of 9 levels), FIG. 1 and Table 1), those diagnosed as obese were selected. The BCS used to select dogs is classified into a total of 9 levels, and dogs with a BCS of level 6 or higher were selected, and detailed criteria are presented in Table 1 and FIG. 1.
# A total of 20 dogs were selected and divided into 4 groups with 5 dogs in each group: a normal obese control (OC); hereinafter, referred to as a control (OC)), an enavogliflozin 0.2-administered group, an enavogliflozin 0.5-administered group, and an enavogliflozin 1-administered group. The control was fed regular feed, and the enavogliflozin-administered groups were fed regular feed supplemented with enavogliflozin at doses of 0.2, 0.5, or 1 mg/kg, respectively. The feed was supplemented with enavogliflozin once a day for 8 weeks and given orally.
# Body weights (BW), chest circumferences, and waist circumferences were measured immediately before the first intake of enavogliflozin-supplemented feed, and once every two weeks for the next 10 weeks. The chest circumferences and waist circumferences were measured four times each at the thickest part of the chest and the thinnest part between the chest and hind legs, and an average size was calculated. Resting energy requirement (RER) was calculated using Equation 1 in the reference document (Brooks et al., Journal of the American Animal Hospital Association 50, 1-11. (2014)).
# Fat thicknesses were evaluated by measuring the perpendicular distance from the T10 spinal process to the skin by radiography (Titan 2000 X-ray system, COMED Medical Systems Co., Ltd., Seoul, Korea) on the first day of enavogliflozin administration, and on weeks 4, 8, and 10 of administration. Body fat was measured with a body fat meter every two weeks for a total of 10 weeks after the start of enavogliflozin administration.
# [1] = Non-clinical toxicity test: 39 weeks repeated oral administration, changes in body weight; format: in vivo, beagles
# [2] = 0.2 mg/kg once a day oral for 8 weeks, week 0
# [3] = 0.2 mg/kg once a day oral for 8 weeks, week 2
# [4] = 0.2 mg/kg once a day oral for 8 weeks, week 4
# [5] = 0.2 mg/kg once a day oral for 8 weeks, week 6
# [6] = 0.2 mg/kg once a day oral for 8 weeks, week 8
# [7] = 0.2 mg/kg once a day oral for 8 weeks, week 10
# [8] = 0.5 mg/kg once a day oral for 8 weeks, week 0
# [9] = 0.5 mg/kg once a day oral for 8 weeks, week 2
# [10] = 0.5 mg/kg once a day oral for 8 weeks, week 4
# [11] = 0.5 mg/kg once a day oral for 8 weeks, week 6
# [12] = 0.5 mg/kg once a day oral for 8 weeks, week 8
# [13] = 0.5 mg/kg once a day oral for 8 weeks, week 10
# [14] = 1 mg/kg once a day oral for 8 weeks, week 0
# [15] = 1 mg/kg once a day oral for 8 weeks, week 2
# [16] = 1 mg/kg once a day oral for 8 weeks, week 4
# [17] = 1 mg/kg once a day oral for 8 weeks, week 6
# [18] = 1 mg/kg once a day oral for 8 weeks, week 8
# [19] = 1 mg/kg once a day oral for 8 weeks, week 10
# [20] = all enavogliflozin-administered groups
structure (smiles),measurement,setting,value
"OC[C@H]1O[C@@H](c2cc(Cc3ccc(C4CC4)cc3)c(Cl)c3c2CCO3)[C@H](O)[C@@H](O)[C@@H]1O [Enavogliflozin, enavogliflozin]","body fat percentage, rank among groups",obese dogs; 0.2 mg/kg,lowest
same,Change rates of chest circumference,obese dogs; [2],100.00 ± 0.00%
same,Change rates of resting energy requirement,obese dogs; [2],100.00 ± 0.00%
same,Change rates of waist circumference,obese dogs; [2],100.00 ± 0.00%
same,Change rates of chest circumference,obese dogs; [3],99.20 ± 3.44%
same,Change rates of resting energy requirement,obese dogs; [3],96.98 ± 2.69%
same,Change rates of waist circumference,obese dogs; [3],100.53 ± 4.71%
same,Change rates of chest circumference,obese dogs; [4],97.16 ± 2.74%
same,Change rates of resting energy requirement,obese dogs; [4],93.41 ± 5.79%
same,Change rates of waist circumference,obese dogs; [4],97.39 ± 12.15%
same,Change rates of chest circumference,obese dogs; [5],95.08 ± 3.96%
same,Change rates of resting energy requirement,obese dogs; [5],95.21 ± 4.10%
same,Change rates of waist circumference,obese dogs; [5],98.96 ± 15.47%
same,Change rates of chest circumference,obese dogs; [6],96.08 ± 2.60%
same,Change rates of resting energy requirement,obese dogs; [6],94.64 ± 3.59 %
same,Change rates of waist circumference,obese dogs; [6],98.89 ± 11.98%
same,Change rates of chest circumference,obese dogs; [7],99.18 ± 3.01%
same,Change rates of resting energy requirement,obese dogs; [7],96.15 ± 4.75%
same,Change rates of waist circumference,obese dogs; [7],101.98 ± 10.78%
same,BCS compared to the control (OC),"obese dogs; 0.2 mg/kg, at 4, 8, and 10 weeks after the start of administration, p<0.05",significantly lower than the control (OC)
same,resting energy requirement (RER) compared to the control (OC),"obese dogs; 0.2 mg/kg, at 4 weeks and 8 weeks after the start of administration, p<0.05",significantly lower
same,body weight compared to the control (OC),"obese dogs; 0.2 mg/kg, from 4 weeks after the start of administration, p<0.05",significantly lower than the control (OC)
same,"fat thickness change, significance","obese dogs; 0.2 mg/kg, week 8 and week 10",significant at week 8 and week 10
same,body weight,obese dogs; 0.5 mg/kg,decreasing at week 2 and week 4 of the trial and then slowly increasing
same,Change rates of chest circumference,obese dogs; [8],100.00 ± 0.00%
same,Change rates of resting energy requirement,obese dogs; [8],100.00 ± 0.00%
same,Change rates of waist circumference,obese dogs; [8],100.00 ± 0.00%
same,Change rates of chest circumference,obese dogs; [9],98.19 ± 4.31%
same,Change rates of resting energy requirement,obese dogs; [9],98.63 ± 0.72%
same,Change rates of waist circumference,obese dogs; [9],99.57 ± 1.71%
same,Change rates of chest circumference,obese dogs; [10],97.16 ± 3.23%
same,Change rates of resting energy requirement,obese dogs; [10],97.93 ± 1.00%
same,Change rates of waist circumference,obese dogs; [10],98.45 ± 4.94%
same,Change rates of chest circumference,obese dogs; [11],95.60 ± 4.55%
same,Change rates of resting energy requirement,obese dogs; [11],97.54 ± 2.73%
same,Change rates of waist circumference,obese dogs; [11],96.30 ± 3.83%
same,Change rates of chest circumference,obese dogs; [12],93.90 ± 3.11%
same,Change rates of resting energy requirement,obese dogs; [12],96.92 ± 2.00%
same,Change rates of waist circumference,obese dogs; [12],93.84 ± 5.54%
same,Change rates of chest circumference,obese dogs; [13],96.43 ± 2.76%
same,Change rates of resting energy requirement,obese dogs; [13],98.79 ± 2.30%
same,Change rates of waist circumference,obese dogs; [13],96.00 ± 4.72%
same,BCS,"obese dogs; 0.5 mg/kg, entire experimental period",decreased during the entire experimental period
same,Change rates of chest circumference,obese dogs; [14],100.00 ± 0.00%
same,Change rates of resting energy requirement,obese dogs; [14],100.00 ± 0.00%
same,Change rates of waist circumference,obese dogs; [14],100.00 ± 0.00%
same,Change rates of chest circumference,obese dogs; [15],94.79 ± 6.67%
same,Change rates of resting energy requirement,obese dogs; [15],97.75 ± 2.32%
same,Change rates of waist circumference,obese dogs; [15],95.97 ± 11.67%
same,Change rates of chest circumference,obese dogs; [16],99.81 ± 2.43%
same,Change rates of resting energy requirement,obese dogs; [16],98.11 ± 2.18%
same,Change rates of waist circumference,obese dogs; [16],99.18 ± 8.09%
same,Change rates of chest circumference,obese dogs; [17],100.54 ± 4.98%
same,Change rates of resting energy requirement,obese dogs; [17],98.95 ± 2.07%
same,Change rates of waist circumference,obese dogs; [17],103.75 ± 10.54%
same,Change rates of chest circumference,obese dogs; [18],99.20 ± 4.49%
same,Change rates of resting energy requirement,obese dogs; [18],99.19 ± 4.05%
same,Change rates of waist circumference,obese dogs; [18],99.76 ± 12.53%
same,Change rates of chest circumference,obese dogs; [19],100.24 ± 5.15%
same,Change rates of resting energy requirement,obese dogs; [19],99.97 ± 6.15%
same,Change rates of waist circumference,obese dogs; [19],101.33 ± 14.44%
same,BCS compared to the control (OC),"obese dogs; 1 mg/kg, at the end of the experiment",lower than the control (OC) at the end of the experiment
same,BCS compared to the control (OC),"obese dogs; 1 mg/kg, during the experiment",slightly increased compared to the control (OC)
same,"BCS, body weight, body fat percentage, fat thickness, and chest and waist circumferences",obese dogs; 8-week administration,reduced
same,fat thickness,"obese dogs; all administration groups (0.2, 0.5, 1 mg/kg)",decreased in all administration groups
same,chest circumference,obese dogs; [20],decreased
same,waist circumference,obese dogs; [20],decreased
same,body fat percentage,"obese dogs; all groups (0.2, 0.5, 1 mg/kg)",no significant differences
same,"anti-obesity results, comparison of doses",obese dogs; feed supplemented with 0.2 mg/kg,most effective results
same,body weight decrease,"[1]; normal female beagles, 1 mg/kg/day oral",7.6%
same,body weight decrease,"[1]; normal female beagles, 3 mg/kg/day oral",11.8%
same,body weight decrease,"[1]; normal female beagles, 6 mg/kg/day oral",11.3%
same,body weight decrease,"[1]; normal male beagles, 1 mg/kg/day oral",9.1%
same,body weight decrease,"[1]; normal male beagles, 3 mg/kg/day oral",12.7%
same,body weight decrease,"[1]; normal male beagles, 6 mg/kg/day oral",21.0%
